Ten compounds from PubChem BioAssay (NCI) can be followed below.

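Protocol summary: plate cells (96-well), add compound at 5 concentrations, incubate 48 h, interpolate endpoints linearly. The concentration for 50% growth inhibition is given as GI50. TGI: concentration producing complete growth inhibition.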

Broadly, the TGI is the concentration giving total growth inhibition. Read a high TGI as less potent growth arrest. For orientation: GI50 means the concentration giving 50% growth inhibition.

Assay in all cases: DTP human tumour cell line panel, 48 h
Assay [1] concerns SNB-19 CNS.
The subject of assay [2] is UACC-257 melanoma.
For assay [3], the system named is TK-10 renal.
For assay [4], the system named is RXF 393 renal.
The subject of assay [5] is LOX IMVI melanoma.
The test system of assay [6] is ACHN renal.
The subject of assay [7] is MALME-3M melanoma.
Assay [8] has as its system NCI-H460 lung.
Assay [9] relates to COLO 205 colon.
Assay [10] has as its system MDA-MB-231 breast.

Turning to `Cc1ccccc1NC(=O)C(=O)CC(=O)C1CCOC1=O` (stereo unspecified), the TGI in assay [1], in assay [2], in assay [3], in assay [4], in [5] and in assay [6] was greater than 100 µM in each case. Besides, the TGI in assay [7], in assay [8] and in assay [9] was greater than 100 µM throughout.

`C/C(=C1/N=C(c2ccccc2)OC1=O)c1ccccc1`: the TGI in assay [1], in assay [2], in assay [3], in assay [5], in assay [6] and in assay [7] was greater than 100 µM each time. For the same compound, the total growth inhibition concentration (TGI) in [10], in assay [8] and in assay [9] was greater than 100 µM in each case.

With `COc1cc2oc(-c3cccc(C(=O)Nc4ccc(C)cc4)c3)cc(=O)c2c(OC)c1OC`, the GI50 is 6.49 µM in assay [1]; 1.92 µM in assay [2]; 6.89 µM in [3]; 0.775 µM in [4]; 0.32 µM in assay [5]; 2.69 µM in assay [6]. Also, the GI50 in [10] was 0.468 µM; in [8], 1.47 µM; in [9] it was 1.05 µM. Further, the TGI in [1] is greater than 100 µM; in assay [2] it was 4.5 µM; in assay [3] it was greater than 100 µM; in assay [4], 5.91 µM; in assay [5], 3.97 µM; in assay [6], greater than 100 µM. Moreover, the TGI was 3.23 µM in assay [10], greater than 100 µM in assay [8] and 2.6 µM in [9].

Consider `COc1cc(/C=C2\NC(=S)C3Cc4c(OC)c(C)c(OC)c(OC)c4C2N3C)c(OC)c(C)c1OC` (stereo unspecified), for which the TGI in assay [1] is greater than 100 µM; in [2] it was greater than 100 µM; in assay [3], greater than 100 µM; in [4], 67.6 µM; in [5], greater than 100 µM; in assay [6], greater than 100 µM. Also, the TGI is greater than 100 µM in [7], 30 µM in assay [8] and 35.2 µM in [9].

Turning to `COC1C(O)CC(OC2CC(OC3CC(O[C@@H]4C(=O)c5c(cc6cc(OC7CC(OC8CC(O)C(O)C(C)O8)C(O)C(C)O7)c(C)c(O)c6c5O)C[C@H]4[C@H](OC)C(=O)[C@@H](O)[C@@H](C)O)OC(C)C3O)OC(C)C2O)OC1C` (stereo partly specified), the TGI in assay [1] is greater than 11.1 µM; in assay [2] it was 0.931 µM; in [3] it was greater than 39.8 µM; in assay [5], greater than 100 µM; in assay [6] it was greater than 100 µM; in assay [7], 0.243 µM. Also, the TGI in assay [10] is greater than 100 µM; in assay [8], 4.34 µM; in assay [9], 0.0921 µM. For the same compound, in assay [5], the GI50 is 0.0164 µM.

Take `COC(=O)c1ccc(NC(N)=NCC(C)(C)COc2ccc(C(F)(F)F)cc2)nc1`: the GI50 in assay [2] is 1.69 µM; in assay [3], 1.57 µM; in [4] it was 1.49 µM; in [6], 1.59 µM; in [7], 1.72 µM; in [10], 1.7 µM. Also, the GI50 in [8] is 1.67 µM; in [9] it was 1.63 µM. The TGI in assay [2] came out at 3.27 µM; in assay [3], 3 µM; in [4] it was 2.96 µM; in assay [6], 2.93 µM; in assay [7], 3.48 µM; in assay [10] it was 3.39 µM. The TGI in assay [8] is 3.36 µM; in assay [9], 3.23 µM.

On to `O=C(Nc1cc(C(F)(F)F)cc(C(F)(F)F)c1)Nc1ccc(OCc2nnc(-c3ccc(Cl)cc3)o2)c(F)c1`, for which the GI50 in assay [1] was 3.1 µM; in [2], 1.62 µM; in [3], 4.39 µM; in assay [5], 2.07 µM; in [6] it was 0.873 µM; in [7] it was 2.3 µM. Moreover, the figures for the GI50 in assay [10], in assay [8] and in [9] were 1.99 µM, 2 µM and 1.64 µM, respectively. Also, the TGI in [1] turned out to be 25.1 µM; in assay [2] it was 5.01 µM; in assay [3] it was 33.9 µM; in assay [5], 5.31 µM; in assay [6] it was 9.2 µM; in assay [7], 6.27 µM. The figures for the total growth inhibition concentration (TGI) in [10], in assay [8] and in assay [9] were 4.93 µM, 7.65 µM and 3.15 µM, respectively.

As to `Cc1cc(S(=O)(=O)Nc2nc3ccccc3[nH]2)c(SCc2ccccc2)cc1Cl`, the GI50 in [1] is 36 µM; in [2], greater than 100 µM; in assay [3], 38 µM; in assay [4] it was greater than 100 µM; in [5] it was 28.4 µM; in assay [6], 32.8 µM. In addition, the GI50 in [10] was 18.2 µM; in assay [8], greater than 100 µM; in assay [9], greater than 100 µM. In addition, the TGI in assay [1], in assay [2], in [3], in assay [4], in [5] and in assay [6] was greater than 100 µM in each case. Also, the TGI was 51.5 µM in [10], greater than 100 µM in assay [8] and greater than 100 µM in assay [9].

Take `COc1ccc(C2CC(c3cccc(OC)c3)=NN2C(=O)c2cc(OC)c(OC)c(OC)c2)cc1` (stereo unspecified): the GI50 in assay [1] was 3.16 µM; in assay [2], 83.8 µM; in assay [5] it was 4.26 µM; in assay [6], 5.54 µM; in [10] it was 1.94 µM; in assay [8], 1.75 µM. Further, in assay [9], the GI50 is 1.19 µM. Besides, the TGI in assay [1], in assay [2], in [3], in assay [5], in assay [6] and in assay [10] was greater than 100 µM in each case. Moreover, the results for the TGI in assay [8] and in [9] were greater than 100 µM and 5.53 µM, respectively.

As for `CN(C)CCC(/C=C/c1ccccc1)=N\Nc1ccc(Cl)cc1`, the TGI was found to be 27.5 µM in assay [1]; 14.5 µM in [2]; 7.85 µM in [3]; 20.9 µM in assay [4]; 3.57 µM in assay [5]; 5.15 µM in [6]. The TGI in assay [7] is 26.2 µM; in [8] it was 4.29 µM; in assay [9] it was 16.5 µM.
